# Legend:
# [1] = Kinetic solubility evaluation; assay type: physicochemical; details: kinetic from dmso stock, 37° C.
# Procedure: The test compounds were dissolved in DMSO to prepare 10 mM stock solutions. 8.71 g of K2HPO4 was added to 500 mL of deionized water to prepare a 100 mM K2HPO4 solution. 2.05 g of potassium dihydrogen phosphate was added to 150 ml of deionized water to prepare a 100 mM potassium dihydrogen phosphate solution. 405 mL of 100 mM K2HPO4 and 95 mL of 100 mM KH2PO4 were mixed, and the mixed solution was adjusted to pH 7.4 by a 100 mM K2HPO4/KH2PO4 solution. 10.41 g of FaSSIF buffer concentrate was added to 240.3 g of deionized water to prepare a buffer solution (fasted-state simulated intestinal fluid, pH=6.5). 4.071 g of FeSSIF buffer concentrate was added to 45.97 g of deionized water to prepare a buffer solution (fed-state simulated intestinal fluid, pH=5.0).
# […] (for PBS) or 37° C. (for others). After the incubation, the solution was transferred to a filter plate. All samples were filtered. 5 μL of the filtrate was added to 5 μL of DMSO, and 490 μl of an aqueous acetonitrile solution containing the internal standard (1:1), and the mixture was mixed evenly. Based on the properties of the compound and its response in mass spectrometry, dilution with an aqueous acetonitrile solution containing the internal standard (1:1) was performed. The dilution factor was varied according to the solubility value and UPLC-MS/MS signal response.
# [2] = In vitro liver microsome stability; assay type: in vitro ADME; details: liver microsomes, NADPH, 37° C.
# Procedure: A 5 mM MgCl2 100 mM K-Mg buffer solution was pre-heated. 5 μL of a 10 mM compound and a reference stock solution were added to 95 μL of acetonitrile (ACN) to prepare a spiked solution. 1.5 μL of a 500 µM spiked solution and 18.75 μL of 20 mg/mL liver microsomes were added to 479.8 μL of the K-Mg buffer solution. NADPH was dissolved in the K-Mg-buffer solution to prepare an NADPH stock solution ([…]). At different time points (0, 5, 15, 30 and 45 minutes), 30 μL of a 1.5 μM spiked solution containing the microsomes was evenly dropped into an assay plate. The plate was preincubated at 37° C. for 5 minutes. At 0 min, 200 μL of ACN containing IS (internal standard, tolbutamid/terfenadine) was added to the wells, and then 15 μl of the NADPH stock solution (6 mM) was added. For other time points, 15 μL of the NADPH stock solution (6 mM) was added to the wells to initiate the reaction and start the timing. At 5, 15, 30 and 45 min, the reaction was stopped by adding 200 μL of ACN containing IS to the corresponding wells of the plate. After quenching, the plate was shaken at 600 rpm for 10 minutes and then centrifuged at 4000 rpm for 50 minutes. 80 μL of the supernatant from each well was transferred to a 96-well sample plate containing 160 μL of pure water for UPLC/MS/MS analysis.
# [3] = biological target: T1, CYP1A2 (Homo sapiens, UniProt P05177); assay: P450 enzyme inhibition, CYP1A2; assay type: in vitro ADME; details: human liver microsome, substrate Phenacetin
# T1 construct: A phosphate buffer solution of liver microsomes was prepared; from tissue; host or cells: human liver microsomes
# T1 sequence (P05177 1-516): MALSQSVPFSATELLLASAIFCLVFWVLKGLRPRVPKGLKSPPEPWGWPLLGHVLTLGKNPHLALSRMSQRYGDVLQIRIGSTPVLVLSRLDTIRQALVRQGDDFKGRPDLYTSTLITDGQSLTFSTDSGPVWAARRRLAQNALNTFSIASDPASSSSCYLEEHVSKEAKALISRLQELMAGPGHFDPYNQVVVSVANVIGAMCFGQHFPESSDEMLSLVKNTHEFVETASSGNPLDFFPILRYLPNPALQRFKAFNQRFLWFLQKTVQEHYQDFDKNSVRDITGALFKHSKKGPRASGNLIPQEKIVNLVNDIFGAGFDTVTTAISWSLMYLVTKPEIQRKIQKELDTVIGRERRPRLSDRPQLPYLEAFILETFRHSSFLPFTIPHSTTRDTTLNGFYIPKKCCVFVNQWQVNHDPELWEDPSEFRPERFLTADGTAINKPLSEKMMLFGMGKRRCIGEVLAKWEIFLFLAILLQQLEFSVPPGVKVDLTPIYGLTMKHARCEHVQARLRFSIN
# Procedure: (§1) A phosphate buffer solution of liver microsomes was prepared. 169 μL of the phosphate buffer solution of liver microsomes and 1 μL of working solutions of various concentrations of test compounds or positive control compounds were added to a 96-well plate. The culture plate was placed in a water bath and pre-heated at 37° C. for 15 minutes. After the incubation, 10 μL of substrates were added to the culture plate (1 μL of substrates and 9 μL of the K-Mg buffer solution were added to the plate for CYP3A4-T). The incubation mixture was mixed on a rotating mixer for 10 seconds, and then 20 μL of a 10 mM NADPH solution was added to start the reaction at a final concentration of 1 mM. The experiment was repeated twice. At the predetermined time points listed in Table 4, the reaction was quenched by adding 400 μL of the quenching solution (cold ACN containing 500 nM mephetedrine and 10 nM terfenadine). Centrifugation was performed at 3220 g for 50 minutes at 4° C. 100 μl of the supernatant was transferred to a new plate. The supernatant was diluted with 100 μL of pure water. The mixture was mixed evenly, and the sample was analyzed by UPLC-MS/MS.
# [4] = biological target: T2, CYP2C19 (Homo sapiens, UniProt P33261); assay: P450 enzyme inhibition, CYP2C19; assay type: in vitro ADME; details: human liver microsome, substrate Mephenytoin
# T2 construct: A phosphate buffer solution of liver microsomes was prepared; from tissue; host or cells: human liver microsomes
# T2 sequence (P33261 whole entry): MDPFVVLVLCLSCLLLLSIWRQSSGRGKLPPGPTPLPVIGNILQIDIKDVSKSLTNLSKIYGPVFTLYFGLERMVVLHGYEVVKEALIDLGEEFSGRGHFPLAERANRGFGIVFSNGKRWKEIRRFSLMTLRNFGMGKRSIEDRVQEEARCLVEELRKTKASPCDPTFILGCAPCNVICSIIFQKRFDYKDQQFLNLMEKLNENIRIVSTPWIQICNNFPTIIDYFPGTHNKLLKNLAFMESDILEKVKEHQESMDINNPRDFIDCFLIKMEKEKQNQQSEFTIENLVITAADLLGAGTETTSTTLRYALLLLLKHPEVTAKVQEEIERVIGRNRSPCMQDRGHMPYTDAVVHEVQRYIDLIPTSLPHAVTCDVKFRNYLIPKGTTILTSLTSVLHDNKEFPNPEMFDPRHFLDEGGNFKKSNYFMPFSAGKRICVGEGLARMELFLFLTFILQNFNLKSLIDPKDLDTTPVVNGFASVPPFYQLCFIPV
# Procedure: as §1
# [5] = biological target: T3, CYP2D6 (Homo sapiens, UniProt P10635); assay: P450 enzyme inhibition, CYP2D6; assay type: in vitro ADME; details: human liver microsome, substrate Dextromethorphan
# T3 construct: A phosphate buffer solution of liver microsomes was prepared; from tissue; host or cells: human liver microsomes
# T3 sequence (P10635 whole entry): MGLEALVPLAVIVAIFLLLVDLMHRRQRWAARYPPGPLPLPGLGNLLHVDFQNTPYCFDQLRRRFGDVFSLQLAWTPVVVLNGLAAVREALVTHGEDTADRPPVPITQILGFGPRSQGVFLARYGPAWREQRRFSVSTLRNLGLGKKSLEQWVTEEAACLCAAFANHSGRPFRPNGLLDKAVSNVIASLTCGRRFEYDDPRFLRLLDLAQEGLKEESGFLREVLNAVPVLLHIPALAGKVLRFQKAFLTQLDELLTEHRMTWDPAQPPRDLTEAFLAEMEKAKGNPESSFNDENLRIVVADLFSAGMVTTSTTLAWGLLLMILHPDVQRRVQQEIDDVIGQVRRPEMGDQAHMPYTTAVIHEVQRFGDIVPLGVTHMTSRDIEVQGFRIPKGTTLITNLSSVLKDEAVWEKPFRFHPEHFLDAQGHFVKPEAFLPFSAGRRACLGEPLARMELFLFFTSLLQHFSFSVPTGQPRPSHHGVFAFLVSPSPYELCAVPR
# Procedure: as §1
# [6] = Pharmacokinetic evaluation in mice; assay type: in vivo
# Procedure: The test compounds were dissolved in vehicles to prepare clear solutions or homogeneous suspensions. […] Blood samples were collected at 0.083 h, 0.25 h, 0.5 h, 1 h, 2 h, 4 h, 8 h, and 24 h after the intravenous administration, and at 0.25 h, 0.5 h, 1 h, 2 h, 4 h, 6 h, 8 h, and 24 h after the oral administration. Plasma samples were centrifuged, and the supernatant was collected to prepare samples, which were then quantitatively analyzed by LC/MS/MS.
smiles,measurement,setting,value
O=C(COc1ccc(Cl)c(F)c1)N[C@H]1CC[C@H](c2nnc(N3CC(OC(F)(F)F)C3)o2)CC1 [Compound 6],solubility at 1.5 h,"[1]; FaSSIF buffer (fasted-state simulated intestinal fluid), fassif, fasted-state simulated intestinal fluid (pH=6.5)",> 0.01 mg/mL
same,solubility at 1.5 h,"[1]; FeSSIF buffer (fed-state simulated intestinal fluid), fessif, fed-state simulated intestinal fluid (pH=5.0)",> 0.08 mg/mL
same,half-life at 1 µM,[2],> 1.5 h
same,IC50,[3],> 10 µM
same,IC50,[4],> 10 µM
same,IC50,[5],> 30 µM
same,pharmacokinetic properties in mice,"[6]; Cl, T1/2, Cmax, AUC, F",excellent pharmacokinetic properties in mice
same,AUC(0-inf),"[6]; plasma, mouse IV (1 mg/kg)",11.4 µg·h/mL
same,C0,"[6]; plasma, mouse IV (1 mg/kg)",1.24 µg/mL
same,clearance,"[6]; plasma, mouse IV (1 mg/kg)",0.0876 L/h/kg
same,half-life,"[6]; plasma, mouse IV (1 mg/kg)",6.35 h
same,Vd,"[6]; plasma, mouse IV (1 mg/kg), read-out: Vss",0.707 L/kg
same,AUC(0-inf),"[6]; plasma, mouse PO (30 mg/kg)",516 µg·h/mL
same,Cmax,"[6]; plasma, mouse PO (30 mg/kg)",48 µg/mL
same,Tmax,"[6]; plasma, mouse PO (30 mg/kg)",3.33 h
same,half-life,"[6]; plasma, mouse PO (30 mg/kg)",3.11 h
same,bioavailability,"[6]; plasma, mouse PO (30 mg/kg) vs IV (1 mg/kg)",161%

# From patent US12612392B2, “Compound, pharmaceutical compositions containing same, synthesis method therefor and use thereof” (SHENZHEN ZHONGGE BIOLOGICAL TECHNOLOGY CO., LTD., priority 2022, dated 2026)
